# Test results taken from the supplement of paper PMC3493320.
# System: NCI-H295R
# Assay: IC50 (antiproliferative, ATP content)
# Settings: 48 h
# Procedure, shortened: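 Compounds were pin-transferred at 8 final concentrations between 0.6 nM and 46 µM onto adrenocortical carcinoma cells (1500 per well, 1536-well plates) that had been cultured overnight in serum-free DMEM with ITS. Plates then stood 48 h at 37 °C, 5% CO2, and ATP was detected by CellTiter-Glo luminescence. IC50 was derived from logistic fits of normalised signal, and compounds giving no concentration response were noted as above the top dose.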
row,SMILES,IC50 [µM]
1,O=c1[nH]c(=O)n([C@H]2C[C@H](O)[C@@H](CO)O2)cc1I,> 46
2,COCCOC(=O)C1=C(C)NC(C)=C(C(=O)OC(C)C)C1c1cccc([N+](=O)[O-])c1 (stereo not drawn),> 46
3,COc1ccc(CN(CCN(C)C)c2ncccn2)cc1.Cl,> 46
4,CCN1CCN(c2cc3c(cc2F)c(=O)c(C(=O)O)cn3C2CC2)CC1,> 46
5,Nc1nc(NC2CC2)c2ncn([C@@H]3C=C[C@@H](CO)C3)c2n1,> 46
6,C=1(C(\C(C(=O)OC)=C(/NC=1C)C)c3c2c(non2)ccc3)C(OC(C)C)=O (stereo not drawn),> 46
7,CCCCCCCCCCCC(=O)N(CCO)CCO,> 46
8,C[Se]CCC(N)C(=O)O (stereo not drawn),> 46
9,Cl.NCCS,> 46
10,Cl.N=C(N)NC(=N)NCCc1ccccc1,> 46
11,CN1CCN(C2=Nc3ccccc3Sc3ccc(Cl)cc32)CC1,> 46
12,C[C@@H](CN1CC(=O)NC(=O)C1)N1CC(=O)NC(=O)C1,> 46
13,NC(=O)c1ncn([C@@H]2O[C@H](CO)[C@@H](O)[C@H]2O)c1O,> 46
14,NCCCC[C@H](N[C@@H](CCc1ccccc1)C(=O)O)C(=O)N1CCC[C@H]1C(=O)O.O.O,> 46
15,CCN(CC)C(=O)N1CCN(C)CC1.O=C(O)CC(O)(CC(=O)O)C(=O)O,> 46
16,CC[C@H](NC(C)C)[C@H](O)c1ccc(O)c2[nH]c(=O)ccc12,> 46
17,Cc1cccc(C)c1NC(=O)CN1CCCC1,> 46
18,CC(C)=CCC/C(C)=C/C=C/C(C)=C/C=C/C(C)=C/C=C/C=C(C)/C=C/C=C(C)/C=C/C=C(\C)CCC=C(C)C,> 46
19,CC(C)NC(C)C,> 46
20,COc1ccc(/C=C/C(=O)Nc2ccccc2C(=O)O)cc1OC,> 46
21,C[N+](C)(C)CCCCCC[N+](C)(C)C,> 46
22,O=C(NC(=O)c1c(F)cccc1F)Nc1cc(Cl)c(OC(F)(F)C(F)C(F)(F)F)cc1Cl (stereo not drawn),> 46
23,O=C(CCBr)N1CCN(C(=O)CCBr)CC1,> 46
24,CNC1(C)C2CCC(C2)C1(C)C (stereo not drawn),> 46

row,SMILES,IC50 [µM]
1,N=C(Nc1ccccc1)Nc1ccccc1,> 46
2,Cn1c(CCCC(=O)O)nc2cc(N(CCCl)CCCl)ccc21,> 46
3,CC(=O)Oc1ccc(C2(c3ccc(OC(C)=O)cc3)C(=O)Nc3ccccc32)cc1,> 46
4,Cc1ncc(COP(=O)(O)O)c(C=O)c1O.O,> 46
5,C[S+](C)CCC(N)C(=O)O.[Cl-] (stereo not drawn),> 46
6,BrC=7Nc1cccc\6c1C=7C[C@@H]2C/6=C/[C@H](CN2C)C(=O)N[C@@]3(O[C@]5(O)N(C3=O)[C@@H](CC(C)C)C(=O)N4CCC[C@H]45)C(C)C,> 46
7,CC/C(=C(/CC)c1ccc(OP(=O)(O)O)cc1)c1ccc(OP(=O)(O)O)cc1,> 46
8,CCCCCCOc1ccccc1C(N)=O,> 46
9,CN(C)C(=O)Oc1cc(OC(=O)N(C)C)cc(C(O)CNC(C)(C)C)c1.Cl (stereo not drawn),> 46
10,COc1ccc2cc(CCC(C)=O)ccc2c1,> 46
11,C[C@H](O)C(=O)Nc1c(I)c(C(=O)NC(CO)CO)c(I)c(C(=O)NC(CO)CO)c1I,> 46
12,CC(=O)Nc1c(I)c(C(=O)[O-])c(I)c(N(C)C(C)=O)c1I.[Na+],> 46
13,C/C1=C2N=C(/C=C3N=C(/C(C)=C4\[N]([Co+][CH2][C@H]5O[C@@H](n6cnc7c(N)ncnc76)[C@H](O)[C@@H]5O)C(C(CC(N)=O)C4(C)CCC(=O)NCC(C)OP(=O)([O-])O[C@H]4[C@@H](O)[C@@H](n5cnc6cc(C)c(C)cc65)O[C@@H]4CO)C4(C)N=C1C(CCC(N)=O)C4(C)CC(N)=O)C(CCC(N)=O)C\3(C)C)C(CCC(N)=O)C/2(C)CC(N)=O (stereo partly drawn),> 46
14,CN(c1nccc(=O)[nH]1)C1CCN(c2nc3ccccc3n2Cc2ccc(F)cc2)CC1,> 46
15,[H][C@]1(CC3)C[C@@H](OC(C(C5=CC=CC=C5)(O)C4=CC=CC=C4)=O)C[C@]3([H])[N@+]21CCCC2.[Cl-],> 46
16,CN[C@@H]1[C@H](O[C@H]2[C@H](O[C@H]3[C@H](O)[C@@H](O)[C@H](NC(=N)N)[C@@H](O)[C@@H]3NC(=N)N)O[C@@H](C)[C@]2(O)C=O)O[C@@H](CO)[C@H](O)[C@H]1O.CN[C@@H]1[C@H](O[C@H]2[C@H](O[C@H]3[C@H](O)[C@@H](O)[C@H](NC(=N)N)[C@@H](O)[C@@H]3NC(=N)N)O[C@@H](C)[C@]2(O)C=O)O[C@@H](CO)[C@H](O)[C@H]1O.O=S(=O)(O)O.O=S(=O)(O)O.O=S(=O)(O)O,> 46
17,CC(=O)CCCCn1c(=O)c2c(ncn2C)n(C)c1=O,> 46
18,CCCN1CCC[C@@H]2Cc3n[nH]cc3C[C@H]21,> 46
19,CC=CC(=O)N(CC)c1ccccc1C,> 46
20,COc1ccccc1N1CCNCC1.Cl,> 46
21,CC(CNC1CCCCC1)OC(=O)c1ccccc1.Cl (stereo not drawn),> 46
22,NCCN,> 46
23,CCCCCCCCOc1ccccc1C(=O)Nc1ccc(C(=O)OCC[N+](C)(CC)CC)cc1.[Br-],> 46
24,CCCC(=O)Nc1c(I)cc(I)c(CC(CC)C(=O)[O-])c1I.[Na+] (stereo not drawn),> 46

row,SMILES,IC50 [µM]
1,CCCC(=O)O[C@]1(C(=O)COC(C)=O)CC[C@H]2[C@@H]3C[C@H](F)C4=CC(=O)C=C[C@]4(C)[C@@]3(F)[C@@H](O)C[C@@]21C,> 46
2,CC[C@H](C)[C@H](N)C1=N[C@H](C(=O)N[C@@H](CC(C)C)C(=O)N[C@H](CCC(=O)O)C(=O)N[C@H](C(=O)N[C@H]2CCCCNC(=O)[C@H](CC(N)=O)NC(=O)[C@@H](CC(=O)O)NC(=O)[C@H](Cc3cnc[nH]3)NC(=O)[C@@H](Cc3ccccc3)NC(=O)[C@H]([C@@H](C)CC)NC(=O)[C@@H](CCCN)NC2=O)[C@@H](C)CC)CS1,> 46
3,CCC1(C2=NCCN2)Cc2ccccc2O1 (stereo not drawn),> 46
4,Cl.NNc1ccccc1,> 46
5,CC(=O)N[C@@H](Cc1ccc(O)cc1)C(=O)O,> 46
6,O.O.O.O.O.O.O.O=S(=O)([O-])[O-].[Co+2],> 46
7,O=C(O)CCC/C=C\C[C@@H]1[C@@H](/C=C/[C@@H](O)COc2cccc(C(F)(F)F)c2)[C@H](O)C[C@@H]1O,> 46
8,COC(=O)[C@@H](N)CCCN/C(N)=N/[N+](=O)[O-],> 46
9,Nc1cc(-c2ccncc2)c[nH]c1=O,> 46
10,C[N+]1(C)CCCC(OC(=O)C(O)(c2ccccc2)c2ccccc2)C1.[Br-] (stereo not drawn),> 46
11,O=C(C=Cc1ccccc1)OCc1ccccc1,> 46
12,Cc1cn([C@H]2C[C@H](F)[C@@H](CO)O2)c(=O)[nH]c1=O,> 46
13,COc1cc(S(C)=O)ccc1-c1nc2ncccc2[nH]1 (stereo not drawn),> 46
14,CC1=C(C/C=C(\C)CCC[C@H](C)CCC[C@H](C)CCCC(C)C)C(=O)c2ccccc2C1=O,> 46
15,COc1ccc(OC)c(C(O)CNC(=O)CN)c1.Cl (stereo not drawn),> 46
16,CC(C)COC(=O)c1ccc(N)cc1,> 46
17,O=C(CN1CCNCC1)NC1CCCCC1,> 46
18,CC(CNC(=O)c1cccnc1)NC(=O)c1cccnc1 (stereo not drawn),> 46
19,C[C@@](Cc1ccc(O)c(O)c1)(NN)C(=O)O,> 46
20,O=C(O[C@H]1C[C@H]2CC3C[C@@H](C1)N2CC3=O)c1c[nH]c2ccccc12,> 46
21,C[C@H](O)CN(C)C,> 46
22,CN1CCCN=C1COC(=O)C(O)(c1ccccc1)C1CCCCC1.Cl (stereo not drawn),> 46
23,OCCO[C@@H]1[C@@H](O)[C@H](O)[C@@H](CO)O[C@@H]1O,> 46
24,Nc1nc(=O)c2c([nH]1)NCC(CNc1ccc(C(=O)N[C@@H](CCC(=O)[O-])C(=O)[O-])cc1)N2C=O.[Ca+2] (stereo partly drawn),> 46

row,SMILES,IC50 [µM]
1,OC[C@H]1O[C@@H]2O[C@H]3[C@H](O)[C@@H](O)[C@@H](O[C@H]4[C@H](O)[C@@H](O)[C@@H](O[C@H]5[C@H](O)[C@@H](O)[C@@H](O[C@H]6[C@H](O)[C@@H](O)[C@@H](O[C@H]7[C@H](O)[C@@H](O)[C@@H](O[C@H]1[C@H](O)[C@H]2O)O[C@@H]7CO)O[C@@H]6CO)O[C@@H]5CO)O[C@@H]4CO)O[C@@H]3CO,> 46
2,CC(=O)Nc1cccc(O)c1,> 46
3,[C@]23([C@](OC(c1occc1)=O)([C@H](C)C[C@H]2[C@H]5[C@]([C@H](C3)O)([C@@]\4(\C(=C/C(/C=C/4)=O)CC5)C)Cl)C(=O)CCl)C,> 46
4,O=C(NCC1CCCCN1)c1cc(OCC(F)(F)F)ccc1OCC(F)(F)F (stereo not drawn),> 46
5,[C@@H]1(O[C@H](CS1)N\2C(\N=C(/C=C/2)N)=O)CO,> 46
6,COc1ccc(S(=O)(=O)Nc2nnc(CC(C)C)s2)cc1,> 46
7,c1ccc2c(c1)Sc1ccccc1N2CCN1CCCC1,> 46
8,C#CCN[C@@H]1CCc2ccccc21.CS(=O)(=O)O,> 46
9,O=C1CCC(=O)N1CO,> 46
10,CC(=O)Nc1nnc(S(N)(=O)=O)s1,> 46
11,c1ccc2c(c1)OCC(CN1CCCCC1)O2 (stereo not drawn),> 46
12,CCC(=O)c1ccc(O)cc1,> 46
13,CC(=O)O.N=C(N)NCCC[C@H](NC(=O)[C@@H]1CCCN1C(=O)[C@@H]1CSSC[C@H](N)C(=O)N[C@@H](Cc2ccc(O)cc2)C(=O)N[C@@H](Cc2ccccc2)C(=O)N[C@@H](CCC(N)=O)C(=O)N[C@@H](CC(N)=O)C(=O)N1)C(=O)NCC(N)=O,> 46
14,OC[C@@H](O)[C@@H](O[C@@H]1O[C@H](CO)[C@H](O)[C@H](O)[C@H]1O)[C@H](O)[C@@H](O)CO,> 46
15,CCCn1cnc2c1c(=O)n(CCCCC(C)=O)c(=O)n2C,> 46
16,CN(C)CCCSc1ccccc1NC(=O)/C=C/c1ccccc1,> 46
17,NCc1ccccc1Sc1ccccc1CO,> 46
18,CC(=O)[O][Al]([OH])[O]C(C)=O,> 46
19,CC(C)CN(C[C@@H](O)[C@H](Cc1ccccc1)NC(=O)O[C@@H]1CCOC1)S(=O)(=O)c1ccc(N)cc1,> 46
20,CC(CC=O)CCCC(C)(C)O (stereo not drawn),> 46
21,CC(C)(C)C(=O)NCCCC(=O)O,> 46
